Literature values in US20080286208A1, “Eye treatment” (priority 2001, published 2008).
“Also recorded” adds a separate entry of the source. Read-outs that look alike come from different tables or passages of the source.

System: eye
Settings: for Stinging when applied to the eye: applied to the eye in suitable dosage

Stinging when applied to the eye (listed as Rose bengal)	Compound	Stinging when applied to the eye	Toxicity to the eye (post instillation)
has a sting potential	O=C([O-])c1c(Cl)c(Cl)c(Cl)c(Cl)c1-c1c2cc(I)c(=O)c(I)c-2oc2c(I)c([O-])c(I)cc12.[Na+].[Na+] [rose bengal]	may result in stinging and pain to an extent that can be disabling for hours post instillation; also recorded: may produce dose related stinging; also recorded: has been found to sting	known to be toxic
	CN(C)c1ccc(C(=C2C=CC(=[N+](C)C)C=C2)c2c(O)c(S(=O)(=O)[O-])cc3cc(S(=O)(=O)[O-])ccc23)cc1.[Na+] [Lissamine green]	without the disadvantages of toxicity and sting potential; also recorded: does not induce stinging; also recorded: does not significantly sting	
